ChEMBL document CHEMBL1144330, “Novel pyrazinone mono-amides as potent and reversible caspase-3 inhibitors” (Bioorg Med Chem Lett, 2005)

Experiments:
Caspase-1 = target: T1, Caspase-1 (Homo sapiens, UniProt P29466); test: Inhibitory concentration against recombinant human caspase-1 in neuronal precursor (NT2) cells
T1 sequence (P29466 whole entry): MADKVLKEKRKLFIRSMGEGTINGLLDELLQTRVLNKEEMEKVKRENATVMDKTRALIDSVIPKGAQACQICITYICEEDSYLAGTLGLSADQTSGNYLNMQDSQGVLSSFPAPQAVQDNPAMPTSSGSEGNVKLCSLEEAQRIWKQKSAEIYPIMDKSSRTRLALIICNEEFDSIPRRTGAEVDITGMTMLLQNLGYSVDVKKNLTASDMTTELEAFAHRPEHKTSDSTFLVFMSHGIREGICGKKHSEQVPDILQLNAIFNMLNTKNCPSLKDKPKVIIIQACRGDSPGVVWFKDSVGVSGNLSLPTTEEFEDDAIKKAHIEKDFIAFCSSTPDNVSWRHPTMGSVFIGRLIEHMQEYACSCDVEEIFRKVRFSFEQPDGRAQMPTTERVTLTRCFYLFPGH

Caspase-3 = target: T2, Caspase-3 (Homo sapiens, UniProt P42574); test: Inhibitory concentration against recombinant human caspase-3 in neuronal precursor (NT2) cells
T2 sequence (P42574 whole entry): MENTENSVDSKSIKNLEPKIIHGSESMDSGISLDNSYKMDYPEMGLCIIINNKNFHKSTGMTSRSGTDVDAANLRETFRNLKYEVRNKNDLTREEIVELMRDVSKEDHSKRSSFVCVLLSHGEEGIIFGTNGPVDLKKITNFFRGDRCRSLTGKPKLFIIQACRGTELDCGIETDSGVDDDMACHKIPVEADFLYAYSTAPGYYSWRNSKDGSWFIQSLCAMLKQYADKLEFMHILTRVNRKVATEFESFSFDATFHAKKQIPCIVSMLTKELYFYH

Caspase-7 = target: T3, Caspase-7 (Homo sapiens, UniProt P55210); test: Inhibitory concentration against recombinant human caspase-7 […]
T3 sequence (P55210 whole entry): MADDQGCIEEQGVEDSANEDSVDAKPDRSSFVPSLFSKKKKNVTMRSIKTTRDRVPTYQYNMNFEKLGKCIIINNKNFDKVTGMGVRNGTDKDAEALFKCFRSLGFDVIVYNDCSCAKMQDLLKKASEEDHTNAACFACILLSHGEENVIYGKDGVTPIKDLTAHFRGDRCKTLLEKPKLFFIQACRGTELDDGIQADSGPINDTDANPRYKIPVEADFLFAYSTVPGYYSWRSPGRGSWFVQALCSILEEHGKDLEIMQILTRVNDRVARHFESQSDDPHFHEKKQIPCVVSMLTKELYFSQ

Caspase-8 = Caspase-8 (Homo sapiens, UniProt Q14790); test: Inhibitory concentration against recombinant human caspase-8 […]
NT2 = test: Inhibitory concentration against camptothecin induced apoptosis in neuronal precursor (NT2) whole cells; format: functional, cell-based; conditions: Homo sapiens
[1] = Inhibitory concentration against etoposide induced apoptosis in mice cerebellar granule neurons; format: functional; conditions: Mus musculus
Caspase-2 = target: T4, Caspase-2 (Homo sapiens, UniProt P42575); test: Inhibitory concentration against caspase-2 in neuronal precursor (NT2) cells
T4 sequence (P42575 whole entry): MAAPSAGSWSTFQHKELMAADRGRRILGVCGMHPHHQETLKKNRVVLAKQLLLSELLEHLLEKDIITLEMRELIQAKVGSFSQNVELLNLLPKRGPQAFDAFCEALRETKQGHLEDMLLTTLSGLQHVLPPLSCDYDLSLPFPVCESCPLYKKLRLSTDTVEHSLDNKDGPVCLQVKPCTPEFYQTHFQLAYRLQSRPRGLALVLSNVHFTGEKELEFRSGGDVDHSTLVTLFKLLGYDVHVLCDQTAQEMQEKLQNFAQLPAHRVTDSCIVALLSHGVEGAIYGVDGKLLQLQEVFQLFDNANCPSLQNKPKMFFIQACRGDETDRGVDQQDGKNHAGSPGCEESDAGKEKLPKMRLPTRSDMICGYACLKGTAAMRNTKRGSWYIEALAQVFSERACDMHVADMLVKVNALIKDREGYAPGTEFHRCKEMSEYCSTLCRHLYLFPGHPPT

Caspase-4 = target: T5, Caspase-4 (Homo sapiens, UniProt P49662); test: Inhibitory concentration against human caspase-4 in neuronal precursor (NT2) cells
T5 sequence (P49662 whole entry): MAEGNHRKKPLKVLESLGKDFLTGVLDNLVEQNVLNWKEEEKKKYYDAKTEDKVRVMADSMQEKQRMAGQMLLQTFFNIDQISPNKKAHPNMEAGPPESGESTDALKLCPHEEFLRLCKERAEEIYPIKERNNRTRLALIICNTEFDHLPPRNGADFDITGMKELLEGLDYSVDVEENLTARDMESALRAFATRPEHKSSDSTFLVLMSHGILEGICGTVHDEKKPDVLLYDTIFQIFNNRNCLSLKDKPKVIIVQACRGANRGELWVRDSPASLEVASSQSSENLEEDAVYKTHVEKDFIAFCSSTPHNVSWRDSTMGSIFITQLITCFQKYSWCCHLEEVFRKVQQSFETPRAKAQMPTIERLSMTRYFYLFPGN

Caspase-5 = target: T6, Caspase-5 (Homo sapiens, UniProt P51878); test: Inhibitory concentration against human caspase-5 in neuronal precursor (NT2) cells
T6 sequence (P51878 whole entry): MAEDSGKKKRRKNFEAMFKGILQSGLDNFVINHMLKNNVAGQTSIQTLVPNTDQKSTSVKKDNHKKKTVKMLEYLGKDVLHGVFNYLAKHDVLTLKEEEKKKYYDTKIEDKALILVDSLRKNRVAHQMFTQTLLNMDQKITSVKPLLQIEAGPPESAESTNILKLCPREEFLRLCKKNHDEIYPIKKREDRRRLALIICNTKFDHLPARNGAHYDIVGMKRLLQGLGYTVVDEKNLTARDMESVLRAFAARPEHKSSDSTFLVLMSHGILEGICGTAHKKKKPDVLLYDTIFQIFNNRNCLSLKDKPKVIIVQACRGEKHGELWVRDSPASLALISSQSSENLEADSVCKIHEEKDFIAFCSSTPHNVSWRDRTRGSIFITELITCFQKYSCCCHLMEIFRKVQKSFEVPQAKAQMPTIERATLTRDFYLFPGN

Caspase-6 = target: T7, Caspase-6 (Homo sapiens, UniProt P55212); test: Inhibitory concentration against caspase-6 in neuronal precursor (NT2) cells
T7 sequence (P55212 whole entry): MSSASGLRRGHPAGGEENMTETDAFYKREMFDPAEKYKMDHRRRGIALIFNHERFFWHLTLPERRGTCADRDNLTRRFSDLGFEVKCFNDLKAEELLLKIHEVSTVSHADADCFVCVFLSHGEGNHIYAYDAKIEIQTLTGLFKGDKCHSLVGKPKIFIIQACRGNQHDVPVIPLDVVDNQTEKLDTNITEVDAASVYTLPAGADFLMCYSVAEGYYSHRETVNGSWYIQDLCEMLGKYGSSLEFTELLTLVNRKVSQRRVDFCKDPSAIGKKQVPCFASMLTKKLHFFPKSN

Caspase-10 = target: T8, Caspase-10 (Homo sapiens, UniProt Q92851); test: Inhibitory concentration against caspase-10 in neuronal precursor (NT2) cells
T8 sequence (Q92851 whole entry): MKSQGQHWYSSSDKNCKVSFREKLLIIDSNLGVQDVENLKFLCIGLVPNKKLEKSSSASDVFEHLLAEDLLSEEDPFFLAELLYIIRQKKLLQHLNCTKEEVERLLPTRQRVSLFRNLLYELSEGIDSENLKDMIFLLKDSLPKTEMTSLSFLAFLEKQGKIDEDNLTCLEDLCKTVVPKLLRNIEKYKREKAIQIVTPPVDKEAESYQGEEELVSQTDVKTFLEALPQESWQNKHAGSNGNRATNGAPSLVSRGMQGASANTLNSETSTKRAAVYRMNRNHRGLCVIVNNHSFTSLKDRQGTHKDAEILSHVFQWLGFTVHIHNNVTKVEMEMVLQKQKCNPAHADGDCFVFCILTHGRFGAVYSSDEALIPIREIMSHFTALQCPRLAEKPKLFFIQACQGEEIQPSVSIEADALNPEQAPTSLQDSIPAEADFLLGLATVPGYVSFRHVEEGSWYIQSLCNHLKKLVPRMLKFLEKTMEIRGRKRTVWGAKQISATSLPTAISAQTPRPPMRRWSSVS

[2] = Inhibitory concentration against etoposide induced apoptosis in rat cortical neurons; format: functional
[3] = Inhibitory concentration against cycloheximide induced cell death in human white blood cells in the absence of plasma proteins; format: functional, cell-based
[4] = Inhibitory concentration against cycloheximide induced cell death in human white blood cells in the presence of plasma proteins; format: functional, cell-based

Caspase-8, sequence (Q14790 217-374 limits assumed): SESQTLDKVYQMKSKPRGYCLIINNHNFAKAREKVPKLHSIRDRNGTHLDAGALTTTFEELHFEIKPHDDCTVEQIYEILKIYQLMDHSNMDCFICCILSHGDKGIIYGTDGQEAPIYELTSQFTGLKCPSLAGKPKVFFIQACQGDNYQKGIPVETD
Caspase-8, sequence (Q14790 385-479 limits assumed): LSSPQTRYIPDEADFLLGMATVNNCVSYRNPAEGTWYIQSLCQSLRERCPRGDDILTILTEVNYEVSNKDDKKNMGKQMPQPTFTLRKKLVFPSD

Row | SMILES | IC50 (Caspase-1) | IC50 (Caspase-3) | IC50 (Caspase-7) | IC50 (Caspase-8) | IC50 (NT2) | IC50 [1] | Ki (Caspase-3) | IC50 (Caspase-2) | IC50 (Caspase-4) | IC50 (Caspase-5) | IC50 (Caspase-6) | IC50 (Caspase-10) | IC50 [2] | IC50 [3] | IC50 [4]
1 | CCC(C(=O)N[C@@H](CC(=O)O)C(=O)CSCc1ccccc1)n1ccnc(NCCOC)c1=O (some centres undefined) | 1.11 µM | 0.14 µM | > 10 µM | > 10 µM | 6.79 µM |  |  |  |  |  |  |  |  |  | 
2 | CCC(C(=O)N[C@@H](CC(=O)O)C(=O)CSCc1ccccc1)n1ccnc(NCCCOC)c1=O (some centres undefined) | 0.92 µM | 0.071 µM | 9.73 µM | 7.65 µM | > 10 µM |  |  |  |  |  |  |  |  |  | 
3 | CCC(C(=O)N[C@@H](CC(=O)O)C(=O)CSCc1ccccc1)n1ccnc(NCCn2nc(C)cc2C)c1=O (some centres undefined) | 1.82 µM | 0.16 µM | > 10 µM | 1.66 µM | 9.48 µM |  |  |  |  |  |  |  |  |  | 
4 | CCC(C(=O)N[C@H](C=O)CC(=O)O)n1ccnc(NCc2nonc2C)c1=O (some centres undefined) | 0.15 µM | 0.078 µM | 1 µM | 0.99 µM | 3.56 µM |  |  |  |  |  |  |  |  |  | 
5 | CCC(C(=O)N[C@@H](CC(=O)O)C(=O)CSCc1ccccc1)n1ccnc(NCc2nc(C)no2)c1=O (some centres undefined) | 0.67 µM | 0.048 µM | 4.68 µM | 6.42 µM | 5.33 µM |  |  |  |  |  |  |  |  |  | 
6 | CCC(C(=O)N[C@@H](CC(=O)O)C(=O)CSCc1ccccc1)n1ccnc(NCCn2cccn2)c1=O (some centres undefined) | 0.99 µM | 0.082 µM | > 10 µM | 2.26 µM | 7.09 µM |  |  |  |  |  |  |  |  |  | 

Now those with a lower IC50 (Caspase-1), led by results:

Row | IC50 (Caspase-1) | IC50 (Caspase-3) | IC50 (Caspase-7) | IC50 (Caspase-8) | IC50 (NT2) | IC50 [1] | Ki (Caspase-3) | IC50 (Caspase-2) | IC50 (Caspase-4) | IC50 (Caspase-5) | IC50 (Caspase-6) | IC50 (Caspase-10) | IC50 [2] | SMILES | IC50 [3] | IC50 [4]
7 | 0.065 µM | 0.036 µM | 0.81 µM | 2.09 µM | 4.56 µM |  |  |  |  |  |  |  |  | CCC(C(=O)N[C@@H](CC(=O)O)C(=O)CSCc1ccccc1)n1ccnc(NCc2cccs2)c1=O (some centres undefined) |  | 
8 | 0.087 µM | 0.14 µM | 3.28 µM | 8.22 µM | 30 µM |  |  |  |  |  |  |  |  | CCC(C(=O)N[C@@H](CC(=O)O)C(=O)CSCc1ccccc1)n1ccnc(NCC2COc3ccccc3O2)c1=O (some centres undefined) |  | 
9 | 0.05 µM |  | 0.013 µM | 2.1 µM | 0.021 µM | 0.05 µM | 0.005 µM | > 10 µM | 0.3 µM | 0.2 µM | 1.7 µM | 17.7 µM | 0.09 µM | CCCCCCN(C)CC(=O)C(CC(=O)O)NC(=O)C(CC)n1cc(C(C)(C)C)nc(NCc2nonc2C)c1=O (centres undefined) | 0.05 µM | 1.2 µM
